Test results from US7067551B2, “Deacetylase inhibitors” (Novartis AG, priority 2000, dated 2006).

Columns and labels:
A549 = test: Annexin V / propidium iodide staining (apoptosis), fluorescence microscopy; format: cell-based, human
Procedure: (§1) Annexin V binding was used as a marker for the early stages of apoptosis. A549,HCT116 and Normal Dermal Human Fibroblasts (NDHF) cells are treated separately with four compounds (CMD1, CMD2, CMD3 and CMD4) for 24 or 48 hours, stained with annexin V and compared to cells treated similarly with vehicle (DMSO). Cells are examined by fluorescence microscopy. […] Viability is assessed by the counterstain, propidium iodide. Cells detected by red fluorescence are not viable.

HCT116 = test: as above; format: cell-based, human
Procedure: as §1

[1] = Body weight change of HCT116 tumor-bearing athymic mice; format: in vivo; conditions: 34th day, ± SEM
Procedure: Outbred athymic (nu/nu) female mice (“Hsd:Athymic Nude-nu” from Harlan Sprague Dawley, Indianapolis, Ind.) are anesthetized with Metofane (Mallinckrodt Veterinary, Inc., Mundelein, Ill.), and 100 μL of the cell suspension containing 1×10^7 cells is injected subcutaneously into the right axillary (lateral) region of each animal. Tumors are allowed to grow for about 20 days until a volume of ˜100 mm^3 is achieved. At this point, mice bearing tumors with acceptable morphology and size are sorted into groups of eight for the study. The sorting process produces groups balanced with respect to mean and range of tumor size. Antitumor activity is expressed as % T/C, comparing differences in tumor volumes for treatment group (T) to vehicle control group (C).
CMD1 is administered intravenously, once daily 5×/week for three weeks, at doses of 10, 25, 50, or 100 mg/kg. The final DMSO concentration is 10%. Each test group has eight mice. Tumors are measured, and individual animal body weights recorded.
Example B3 is repeated except the HCT116 colon tumor cell line is used in place of the A549 cell line. The HCT116 cell line is also obtained from American Type Culture Collection, Rockville, Md., and the cell line is free of Mycoplasma contamination and viral contamination.
Example B4 is repeated except the HCT116 colon tumor cell line is used in place of the A549 cell line. The HCT116 is also obtained from American Type Culture Collection, Rockville, Md., and the cell line is free of Mycoplasma contamination and viral contamination.

[2] = system: HCT116 (colon tumor cell); test: Monolayer cell growth inhibition, MTS assay; format: cell-based; conditions: Homo sapiens, HCT-116, HCT116, 72 hours compound treatment, lactate salts
Excerpt: (§2) Cell lines H1299 (human lung carcinoma cell) and HCT116 (colon tumor cell) are obtained from the American Type Culture Collection, Rockville, Md. The cell lines are free of Mycoplasma contamination (Rapid Detection System by Gen-Probe, Inc., San Diego, Calif.) and viral contamination (MAP testing by MA BioServices, Inc., Rockville, Md.). The cell lines are propagated and expanded in RPMI 1640 medium containing 10% heat-inactivated FBS (Life Technologies, Grand Island, N.Y.). Cell expansions for implantation are performed in cell factories (NUNC, purchased from Fisher Scientific, Springfield, N.J.). Cells are harvested at 50–90% confluency, washed once with HBSS (Hank's Balanced Salt Solution) containing 10% FBS, and suspended in 100% HBSS.
(§3) Cell proliferation is measured with a commercial MTS kit (Promega, Madision, Wis.) assay using an adaptation of published procedures, for example, that disclosed in Feasibility of drug screening with panels of human tumor cell lines using a microculture tetrazolium assay, Alley M C, et al., Cancer Res. 1988; 48:589–601. Cells are plated in 96-well tissue culture dishes, with top and bottom rows left empty. H1299 and HCT116 cells are suspended in complete media at a density of 5.3×10^3 and 3.6×10^3 cell/mL, respectively, and 190 μl are added per well. Each cell line is added to one half of the plate. Complete medium (200 μL) is added to the top and bottom rows. Twenty-four hours later, 10 μl of MTS solution is added to one of the plates to determine the activity at the time of compound addition (T0). The plate is incubated at 37° C. for 4 hours and the OD490 is measured on a Molecular Devices Thermomax at 490 nm using the Softmax program. The T0 plate serves as a reference for initial activity at the beginning of the experiment.
(§4) Five serial dilutions (1:4) of each compound are made in a 96-deep well plate with the highest concentrations on the edge of plate. Two cell lines are tested with two compounds per plate.0 Ten microliters of each of the five dilutions are added in triplicate and complete medium alone is added to columns six and seven. The plates are incubated at 37° C. for 72 hours. The MTS solution is added (as for the T0 plate) and read four hours later.
(§5) In order to analyze the data, the average background value (media alone) is subtracted from each experimental well; the triplicate values are averaged for each compound dilution. The following formulas are used to calculate percent growth.
The stock solution is diluted with 5% dextrose injection, USP, just prior to dosing.

[3] = system: HDA partially purified from H1299 cells; test: HDA enzyme assay, 3H-acetate release from acetylated histone H4 peptide; format: biochemical, human; conditions: HDA partially purified from H1299, 37° C. 1.5 hr
Procedure: HDA is partially purified from H1299, human non-small cell lung carcinoma cells (obtained from American Type Culture Collection, 12301 Parklawn Drive, Rockville, Md. 20852, USA). Cells are grown to 70–80% confluence in RPMI media in the presence of 10% FCS, harvested and lysed by sonication. The lysate is centrifuged at 23,420 g for 10–15 min, the supernatant is applied to a Hiload 26/10 High performance Q-sepharose column (Amersham Pharmacia Biotech), and equilibrated with a buffer containing 20 mM Tris pH8.0, 1 mM EDTA, 10 mM NH4Cl2, 1 mM μ-Mercaptoethanol, 5% glycerol, 2 μg/mL aprotinin, 1 μg/mL leupeptin, and 400 mM PMSF. Proteins are eluted in 4 mL aliquots with a linear gradient from 0–500 mM NaCl in the above buffer at a flow rate of 2.5 mL/min. Each preparation of partially purified HDA enzyme is titrated to determine the optimal amount needed to obtain a signal to noise ratio of at least 5 to 1. […] The compounds are serially diluted in DMSO to generate stocks at 20-fold of the assay concentrations. Final concentrations of compounds in the assay are 10 μM, 2 μM, 400 nM, 80 nM, and 16 nM with the final percentage of DMSO in each enzyme reaction equaling 0.1%. Each concentration of compound is assayed in duplicate. The substrate used in the reaction is a peptide of amino acid sequence, [sequence], corresponding to the twenty-four N-terminal amino acids of human histone H4, biotinylated at the N-terminus and penta-acetylated, at each lysine residue with ^3H-acetate. To initiate the reaction, the substrate is diluted in 10 μL of Buffer A (100 mM Tris pH 8.0, 2 mM EDTA), added to the enzyme mixture and collected at the bottom of the deep well plate by centrifugation for 5 minutes at 1500 rpm. Following centrifugation, the mixture is incubated at 37° C. for 1.5 hr. The reaction is stopped by the addition of 20 μL of the Stop Buffer (0.5N HCl, 0.08M Acetic Acid). At this point, the assay proceeds to the robotic extraction phase or is frozen for several days at −80° C.
The extraction of enzymatically cleaved ^3H-acetate groups from the reaction mixture is achieved with the solvent TBME (t-butyl methyl ether) using the Tomtec Quadra 96 workstation. A program is written to add 200 μL of TBME to a 96 “deep well” plate. The workstation is programmed to aspirate 50 μL of air followed by 200 μL of TBME and finally another 25 μL of air, which is dispensed into the each well of the plate. The contents of the deep well were mixed thoroughly by pipetting 160 μL up and down 10 times. Before addition of TBME to the reaction mixture, it is necessary to “pre-wet” the pipette tips with TBME to prevent the solvent from dripping during the transfer to the deep well plate. The organic and aqueous phases in the deep well are separated by centrifugation at 1500 rpm for 5 min. Opti-Phase Supermix liquid scintillation cocktail (200 μL) (Wallac) is added to each well of the 96-well Trilux plate (Wallac). […] The Trilux plate is covered with clear film and read on a 1450 MicroBeta Trilux liquid scintillation and luminescence counter (Wallac) with a color/chemical quench and dpm correction.
In order to determine the IC50 values, the data are analyzed on a spreadsheet. The analysis requires a correction for the background luminescence that is accomplished by subtracting the dpm values of wells without ^3H substrate from the experimental wells. […]

[4] = system: H1299 (human lung carcinoma cell); test: Monolayer cell growth inhibition, MTS assay; format: cell-based; conditions: NCI-H1299, H1299, 72 hours compound treatment, lactate salts
Excerpt: as §2, §3, §4, §5
Lactate salts of N-hydroxy-3-[4-[[[2-(1H-indol-3-yl)-ethyl]-amino]methyl]phenyl]-2E-2-propenamide (CMD1), N-hydroxy-3-[4-[[(2-hydroxyethyl)[2-(1H-indol-3-yl)ethyl]-amino]methyl]phenyl]-2E-2-propenamide (CMD2), N-hydroxy-3-[4-[[[2-(5-methoxy-1H-indol-3-yl)-ethyl]-amino]methyl]pheny]-2E-2-propenamide (CMD3), N-hydroxy-3-[4-[[[2-(5-fluoro-1H-indol-3-yl)-ethyl]-amino]methyl]phenyl]-2E-2-propenamide (CMD4), N-hydroxy-3-[4-[[[2-(benzofur-3-yl)-ethyl]-amino]methyl]phenyl]-2E-2-propenamide (CMD5) having a purity of higher than 95% are dissolved in pure dimethylsulfoxide (DMSO) to create a stock solution. The stock solution is diluted with 5% dextrose injection, USP, just prior to dosing.

## O=C(/C=C/c1ccc(CNCCc2c[nH]c3ccccc23)cc1)NO [CMD1, N-hydroxy-3-[4-[[[2-(1H-indol-3-yl)-ethyl]-amino]methyl]phenyl]-2E-2-propenamide]
A549; A549, 24 hour exposure
  cells exhibiting cell surface staining with annexin V: A small percentage
A549; A549, 48 hour treatment
  cells staining with annexin V and/or propidium iodide: the majority
HCT116; HCT116, 24 hour exposure
  cells exhibiting cell surface staining with annexin V: the majority
HCT116; HCT116, 48 hour treatment
  cells staining with annexin V and/or propidium iodide: the majority
[1]; Table B5, HCT116, 50 mg/kg i.v., seven mice
  Δ % BODY WEIGHT: −7.4 ± 0.8%
[1]; Table B5, HCT116, 100 mg/kg i.v.
  Δ % BODY WEIGHT: −3.2 ± 0.4%
[2]
  IC50: 0.03 µM
[3]
  IC50: 0.032 µM
[4]
  IC50: 0.4 µM
